Data taken from patent US9656990B2, “Cathepsin cysteine protease inhibitors” (Merck Sharp & Dohme Corp., priority 2014, dated 2017).

Columns and labels:
human cathepsin K = human cathepsin K (UniProt P43236, Y175D/V274L, species not given); assay: Cathepsin K Assay; format: biochemical; conditions: IP from dose response curve; Z-Leu-Arg-AMC substrate, pH 5.5; read-out: hrbCat K (IP (nM))
human cathepsin F = target: T1, human cathepsin F (Homo sapiens, UniProt Q9UBX1); assay: Cathepsin F Assay; format: biochemical; conditions: IP from dose response curve; Z-Phe-Arg-AMC substrate, pH 5.5; read-out: hCat F (IP (nM))
T1 sequence (Q9UBX1 271-484): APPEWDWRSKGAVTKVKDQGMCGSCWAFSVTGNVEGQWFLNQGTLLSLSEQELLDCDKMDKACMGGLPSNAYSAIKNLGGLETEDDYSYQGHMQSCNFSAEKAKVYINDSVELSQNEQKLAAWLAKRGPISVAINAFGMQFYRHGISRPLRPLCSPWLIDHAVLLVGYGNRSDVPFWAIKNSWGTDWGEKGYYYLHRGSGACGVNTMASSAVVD
Protocol: Serial dilutions (1/3) from 500 μM down to 0.025 μM of test compounds were prepared in dimethyl sulfoxide (DMSO). Then 0.5 μL of DMSO from each dilution were added to 18.75 μL of assay buffer (MES, 50 mM (pH 5.5); EDTA, 2.5 mM; DTT, 2.5 mM and 10% DMSO) containing human cathepsin F (10 nM) in assay buffer solution. The assay solutions were mixed for 5-10 seconds on a shaker plate and incubated for 15 minutes at room temperature. Z-Phe-Arg-AMC (8 μM) in 6.25 μL of assay buffer was added to the assay solutions. Hydrolysis of the coumarin leaving group (AMC) was followed by spectrofluorometry (Exλ=360 nm; Emλ=460 nm) for 20 minutes. Percent of inhibition were calculated by fitting experimental values to standard mathematical model for dose response curve.

## CC(C)OC(=O)N1CC(c2ccc(-c3cn(-c4ccc(F)cc4)nc3[C@@H]3CCCC[C@H]3C(=O)NC3(C#N)CC3)cc2)C1 [Example 6, Isopropyl 3-(4-(3-((1R,2R)-2-((1-cyanocyclopropyl)carbamoyl)cyclohexyl)-1-(4-fluorophenyl)-1H-pyrazol-4-yl)phenyl)azetidine-1-carboxylate]
Human cathepsin K
  IC50: 0.53 nM
Human cathepsin F
  IC50: 49 nM

## Cc1ccc(-n2cc(-c3ccc(N4CCS(=O)(=O)CC4)cc3)c([C@@H]3CCCC[C@H]3C(=O)NC3(C#N)CC3)n2)nn1 [Example 7, (1R,2R)—N-(1-Cyanocyclopropyl)-2-(4-(4-(1,1-dioxidothiomorpholino)phenyl)-1-(6-methylpyridazin-3-yl)-1H-pyrazol-3-yl)cyclohexanecarboxamide]
Human cathepsin K
  IC50: 1.54 nM
Human cathepsin F
  IC50: 517 nM

## N#CC1(NC(=O)[C@@H]2CCCC[C@H]2c2nn(-c3cncc(Cl)c3)cc2-c2ccc(N3CCS(=O)(=O)CC3)cc2)CC1 [Example 8, (1R,2R)-2-(1-(5-Chloropyridin-3-yl)-4-(4-(1,1-dioxidothiomorpholino)phenyl)-1H-pyrazol-3-yl)-N-(1-cyanocyclopropyl)cyclohexanecarboxamide]
Human cathepsin K
  IC50: 0.75 nM
Human cathepsin F
  IC50: 215 nM

## CN=S1(=O)CCN(c2ccc(-c3cn(-c4ccc(F)cn4)nc3[C@@H]3CC(F)(F)CC[C@H]3C(=O)NC3(C#N)CC3)cc2)CC1 [Example 9, (1R,2R)—N-(1-Cyanocyclopropyl)-4,4-difluoro-2-(1-(5-fluoropyridin-2-yl)-4-(4-(1-(methylimino)-1-oxidothiomorpholino)phenyl)-1H-pyrazol-3-yl)cyclohexanecarboxamide]
Human cathepsin K
  IC50: 2.56 nM
Human cathepsin F
  IC50: 3670 nM

## N#CC1(NC(=O)[C@@H]2C[C@@H](F)CC[C@H]2c2nn(-c3ccc(F)cn3)cc2-c2ccc(N3CCS(=O)(=O)CC3)cc2)CC1 [Example 10, (1R,2R,5S)—N-(1-Cyanocyclopropyl)-2-(4-(4-(1,1-dioxidothiomorpholino)phenyl)-1-(5-fluoropyridin-2-yl)-1H-pyrazol-3-yl)-5-fluorocyclohexanecarboxamide]
Human cathepsin K
  IC50: 0.89 nM
Human cathepsin F
  IC50: 1050 nM

## N#CC1(NC(=O)[C@@H]2CC(F)(F)CC[C@H]2c2nn(-c3ccc(F)cc3)c(CO)c2-c2ccc(N3CCS(=O)(=O)CC3)cc2)CC1 [Example 11, (1R,2R)—N-(1-Cyanocyclopropyl)-2-(4-(4-(1,1-dioxidothiomorpholino)phenyl)-1-(4-fluorophenyl)-5-(hydroxymethyl)-1H-pyrazol-3-yl)-5,5-difluorocyclohexanecarboxamide]
Human cathepsin K
  IC50: 1.41 nM
Human cathepsin F
  IC50: 125 nM

## N#CC1(NC(=O)[C@@H]2CC(F)(F)CC[C@H]2c2nn3ccccc3c2-c2ccc(C(=O)N3CCOCC3)cc2)CC1 [Example 13, (1R,2R)—N-(1-cyanocyclopropyl)-5,5-difluoro-2-(3-(4-(morpholine-4-carbonyl)phenyl)pyrazolo[1,5-a]pyridin-2-yl)cyclohexanecarboxamide]
Human cathepsin K
  IC50: 4.84 nM
Human cathepsin F
  IC50: 339 nM

## N#CC1(NC(=O)[C@@H]2C[C@@H](F)CC[C@H]2c2nn(-c3ccc(F)cn3)cc2-c2ccc(N3CCS(=N)(=O)CC3)cc2)CC1 [Example 14, (1R,2R,5S)-N-(1-cyanocyclopropyl)-5-fluoro-2-(1-(5-fluoropyridin-2-yl)-4-(4-(1-imino-1-oxidothiomorpholino)phenyl)-1H-pyrazol-3-yl)cyclohexanecarboxamide]
Human cathepsin K
  IC50: 2 nM
Human cathepsin F
  IC50: 2020 nM

## CN=S1(=O)CCN(c2ccc(-c3cn(-c4ccc(F)cc4)nc3[C@@H]3CC[C@H](F)C[C@H]3C(=O)NC3(C#N)CC3)cc2)CC1 [Example 15, (1R,2R,5S)-N-(1-cyanocyclopropyl)-5-fluoro-2-(1-(4-fluorophenyl)-4-(4-(1-(methylimino)-1-oxidothiomorpholino)phenyl)-1H-pyrazol-3-yl)cyclohexanecarboxamide]
Human cathepsin K
  IC50: 3 nM
Human cathepsin F
  IC50: 1780 nM

## N#CC1(NC(=O)[C@@H]2C[C@@H](F)CC[C@H]2c2nn(-c3ccc(F)cc3)cc2-c2ccc(N3CCS(=N)(=O)CC3)cc2)CC1 [Example 16, (1R,2R,5S)-N-(1-cyanocyclopropyl)-5-fluoro-2-(1-(4-fluorophenyl)-4-(4-(1-imino-1-oxidothiomorpholino)phenyl)-1H-pyrazol-3-yl)cyclohexanecarboxamide]
Human cathepsin K
  IC50: 2.83 nM
Human cathepsin F
  IC50: 2600 nM

## CN=S1(=O)CCN(c2ccc(-c3cn(-c4ccc(F)cn4)nc3[C@@H]3CC[C@H](F)C[C@H]3C(=O)NC3(C#N)CC3)cc2)CC1 [Example 17, (1R,2R,5S)-N-(1-cyanocyclopropyl)-5-fluoro-2-(1-(5-fluoropyridin-2-yl)-4-(4-(1-(methylimino)-1-oxidothiomorpholino)phenyl)-1H-pyrazol-3-yl)cyclohexanecarboxamide]
Human cathepsin K
  IC50: 3.22 nM
Human cathepsin F
  IC50: 1410 nM

## CC(C)(C)N=S1(=O)CCN(c2ccc(-c3cn(-c4ccc(F)cc4)nc3[C@@H]3CCCC[C@H]3C(=O)NC3(C#N)CC3)cc2)CC1 [Example 18, (1R,2R)-2-(4-(4-(1-(tert-butylimino)-1-oxidothiomorpholino)phenyl)-1-(4-fluorophenyl)-1H-pyrazol-3-yl)-N-(1-cyanocyclopropyl)cyclohex-anecarboxamide]
Human cathepsin K
  IC50: 5 nM
Human cathepsin F
  IC50: 1290 nM

## N#CN=S1(=O)CCN(c2ccc(-c3cn(-c4ccc(F)cc4)nc3[C@@H]3CCCC[C@H]3C(=O)NC3(C#N)CC3)cc2)CC1 [Example 19, (1R,2R)-N-(1-cyanocyclopropyl)-2-(4-(4-(1-(cyanoimino)-1-oxidothiomorpholino)phenyl)-1-(4-fluorophenyl)-1H-pyrazol-3-yl)cyclohexanecarboxamide]
Human cathepsin K
  IC50: 2.2 nM
Human cathepsin F
  IC50: 809 nM

## N#CC1(NC(=O)[C@@H]2CCC(F)(F)C[C@H]2c2nn(-c3ccc(F)cn3)cc2-c2ccc(N3CCS(=N)(=O)CC3)cc2)CC1 [Example 20, (1R,2R)-N-(1-cyanocyclopropyl)-4,4-difluoro-2-(1-(5-fluoropyridin-2-yl)-4-(4-(1-imino-1-oxidothiomorpholino)phenyl)-1H-pyrazol-3-yl)cyclohexanecarboxamide]
Human cathepsin K
  IC50: 6.81 nM
Human cathepsin F
  IC50: 1820 nM

## N#CC1(NC(=O)[C@@H]2CCCC[C@H]2c2nn3ccccc3c2-c2ccc(N3CCS(=O)(=O)CC3)cc2)CC1 [Example 21, (1R,2R)-N-(1-cyanocyclopropyl)-2-(3-(4-(1,1-dioxidothiomorpholino)phen-yl)pyrazolo[1,5-a]pyridin-2-yl)cyclohexanecarboxamide]
Human cathepsin K
  IC50: 9.56 nM
Human cathepsin F
  IC50: 6910 nM

## Cc1c(-c2ccc(N3CCS(=O)(=O)CC3)cc2)c([C@@H]2CCC(F)(F)C[C@H]2C(=O)NC2(C#N)CC2)nn1-c1ccc(F)cc1 [Example 26, (1R,2R)-N-(1-cyanocyclopropyl)-2-(4-(4-(1,1-dioxidothiomorpholino)phen-yl)-1-(4-fluorophenyl)-5-methyl-1H-pyrazol-3-yl)-5,5-difluorocyclohexanecarbox-amide]
Human cathepsin K
  IC50: 0.67 nM
Human cathepsin F
  IC50: 168 nM

## Cc1c(-c2ccc(N3CCS(=O)(=O)CC3)cc2)c([C@@H]2CCC(F)(F)C[C@H]2C(=O)NC2(C#N)CC2)nn1-c1ccc(F)cn1 [Example 27, (1R,2R)-N-(1-cyanocyclopropyl)-2-(4-(4-(1,1-dioxidothiomorpholino)phen-yl)-1-(5-fluoropyridin-2-yl)-5-methyl-1H-pyrazol-3-yl)-5,5-difluorocyclohexanecarbox-amide]
Human cathepsin K
  IC50: 1.28 nM
Human cathepsin F
  IC50: 170 nM

## N#CC1(NC(=O)[C@@H]2CC(F)(F)CC[C@H]2c2nn3ccccc3c2-c2ccc(N3CCS(=O)(=O)CC3)cc2)CC1 [Example 28, (1R,2R)-N-(1-cyanocyclopropyl)-2-(3-(4-(1,1-dioxidothiomorpholino)phen-yl)pyrazolo[1,5-a]pyridin-2-yl)-5,5-difluorocyclohexanecarbox-amide]
Human cathepsin K
  IC50: 1.94 nM
Human cathepsin F
  IC50: 363 nM

## N#CC1(NC(=O)[C@@H]2C[C@@H](F)CC[C@H]2c2nn(-c3ncccc3F)cc2-c2ccc(N3CCS(=O)(=O)CC3)cc2)CC1 [Example 29, (1R,2R,5S)-N-(1-cyanocyclopropyl)-2-(4-(4-(1,1-dioxidothiomorpholino)phen-yl)-1-(3-fluoropyridin-2-yl)-1H-pyrazol-3-yl)-5-fluorocyclohexanecarboxamide]
Human cathepsin K
  IC50: 6.2 nM
Human cathepsin F
  IC50: 6780 nM

## N#CC1(NC(=O)[C@@H]2CCCC[C@H]2c2nn(-c3ccc(F)cn3)c(CO)c2-c2ccc(N3CCS(=O)(=O)CC3)cc2)CC1 [Example 30, (1R,2R)-N-(1-cyanocyclopropyl)-2-(4-(4-(1,1-dioxidothiomorpholino)phen-yl)-1-(5-fluoropyridin-2-yl)-5-(hydroxymethyl)-1H-pyrazol-3-yl)cyclohexanecarboxamide]
Human cathepsin K
  IC50: 11 nM
Human cathepsin F
  IC50: 5870 nM

## Cc1c(-c2ccc(N3CCS(=O)(=O)CC3)cc2)c([C@@H]2CCC(F)(F)C[C@H]2C(=O)N[C@H](C#N)C(C)C)nn1-c1ccc(F)cn1 [Example 31, (1R,2R)-N-((S)-1-cyano-2-methylpropyl)-2-(4-(4-(1,1-dioxidothiomorpholino)phen-yl)-1-(5-fluoropyridin-2-yl)-5-methyl-1H-pyrazol-3-yl)-5,5-difluorocyclohexanecarbox-amide]
Human cathepsin K
  IC50: 1.63 nM
Human cathepsin F
  IC50: 115 nM
